A short description of data set [1]: Solubility of celecoxib in HBSS (centrifugation, HPLC of supernatant). In kind it is physicochemical. Particulars: Hank's Balanced Salt Solution (HBSS), aqueous buffer, thermodynamic from solid, 37° C., 2 h mixing, API/excipient 1/5, total dispersed API 1,000 μg/mL, 16,000 g 10 min, read-out: water solubility of celecoxib (concentration in supernatant). As for the experimental part: FIG. 8 provides a graph showing the solubility of celecoxib when incorporated with OHPP, HPMCAS, and Soluplus, as compared with that of celecoxib alone. The ratios between celecoxib and each excipient was 1/5, with total dispersed API of 1,000 μg/mL in HBSS buffer (37° C.). The mixing time was 2 h before subjecting the dispersion to centrifugation to collect supernatant for celecoxib quantification. The weight ratio of celecoxib, OHPP, and HPMCAS was 1, 3, and 2 respectively for the Cel-OHPP-HPMCAS preparation.
Thereafter, the dispersions were centrifuged at 16,000 g for 10 min, and the supernatants were collected for celecoxib quantification using HPLC. The concentration of celecoxib in the supernatant was considered as its water solubility.

Another data set is described as follows: physchem. In kind it is physicochemical. As for the experimental part: FIG. 7 provides a graph showing the solubility of curcumin when incorporated with OHPP, HPMCAS, and Soluplus, as compared with that of curcumin alone. The ratio between curcumin and excipient was 1/9, with total dispersed curcumin of 1,000 μg/mL in HBSS buffer (37° C.). The mixing time was 2 h before subjecting the dispersion to centrifugation to collect supernatant for curcumin quantification.
Thereafter, the dispersions were centrifuged at 16,000 g for 10 min, and the supernatants were collected for curcumin quantification using HPLC. The concentration of curcumin in the supernatant was considered as its water solubility.

Data set [2] is described as follows: Solubility of docetaxel in HBSS (centrifugation, HPLC of supernatant). As to conditions: Hank's Balanced Salt Solution (HBSS), aqueous buffer, thermodynamic from solid, 20° C., 10 min vortex, API/excipient 1/3, total dispersed API 2,500 μg/mL, 16,000 g 10 min, read-out: water solubility of docetaxel (concentration in supernatant). In kind it is physicochemical. As for the experimental part:
FIG. 5 provides a graph showing the solubility of docetaxel when incorporated with OHPP, HPMCAS, and Soluplus, as compared with that of docetaxel alone. The ratio between docetaxel and excipient was 1/3, with total dispersed docetaxel of 2,500 μg/mL in HBSS buffer (20° C.). The mixing time was 10 min before subjecting the dispersion to centrifugation to collect supernatant for docetaxel quantification.
Thereafter, the dispersions were centrifuged at 16,000 g for 10 min, and the supernatants were collected for docetaxel quantification using HPLC. The concentration of docetaxel in the supernatant was considered as its water solubility.

Data set [3] is described as follows: Solubility of griseofulvin in HBSS (centrifugation, HPLC of supernatant). In kind it is physicochemical. As to conditions: Hank's Balanced Salt Solution (HBSS), aqueous buffer, thermodynamic from solid, 37° C., 2 h mixing, API/excipient 1/3, total dispersed API 2,500 μg/mL, 16,000 g 10 min, read-out: water solubility of griseofulvin (concentration in supernatant). As for the experimental part: The mixing time was 2 h before subjecting the dispersion to centrifugation to collect supernatant for griseofulvin quantification.
Thereafter, the dispersions were centrifuged at 16,000 g for 10 min, and the supernatants were collected for griseofulvin quantification using HPLC. The concentration of griseofulvin in the supernatant was considered as its water solubility.

A short description of data set [4]: Solubility of itraconazole in HBSS (centrifugation, HPLC of supernatant). In kind it is physicochemical. As to conditions: Hank's Balanced Salt Solution (HBSS), aqueous buffer, thermodynamic from solid, 20° C., 10 min vortex, API/excipient 1/3, total dispersed API 2,500 μg/mL, 16,000 g 10 min, read-out: water solubility of itraconazole (concentration in supernatant). As for the experimental part: FIG. 6 provides a graph showing the solubility of itraconazole when incorporated with OHPP, HPMCAS, and Soluplus, as compared with that of itraconazole alone. The ratio between itraconazole and excipient was 1/3, with total dispersed itraconazole of 2,500 μg/mL in HBSS buffer (20° C.). The mixing time was 10 min before subjecting the dispersion to centrifugation to collect supernatant for itraconazole quantification.
Thereafter, the dispersions were centrifuged at 16,000 g for 10 min, and the supernatants were collected for itraconazole quantification using HPLC. The concentration of itraconazole in the supernatant was considered as its water solubility.

A short description of data set [5]: Solubility of niclosamide in HBSS (centrifugation, HPLC of supernatant). As to conditions: Hank's Balanced Salt Solution (HBSS), aqueous buffer, thermodynamic from solid, 37° C., 2 h mixing, API/excipient 1/3, total dispersed API 2,500 μg/mL, 16,000 g 10 min, read-out: water solubility of niclosamide (concentration in supernatant). In kind it is physicochemical. As for the experimental part: FIG. 2 provides a graph showing the solubility of niclosamide when incorporated with OHPP, HPMCAS, and Soluplus (Soluplus®, BASF), as compared with that of niclosamide alone. The ratio between niclosamide and excipient was 1/3, with total dispersed API of 2,500 μg/mL in HBSS buffer (37° C.). The mixing time was 2 h before subjecting the dispersion to centrifugation to collect supernatant for API quantification.
Thereafter, the dispersions were centrifuged at 16,000 g for 10 min, and the supernatants were collected for niclosamide quantification using HPLC. The concentration of niclosamide in the supernatant was considered as its water solubility.

Data set [6] in a line: Solubility of paclitaxel in HBSS (centrifugation, HPLC of supernatant). In kind it is physicochemical. Particulars: Hank's Balanced Salt Solution (HBSS), aqueous buffer, thermodynamic from solid, 37° C., 2 h mixing, API/excipient 1/3, total dispersed API 2,500 μg/mL, 16,000 g 10 min, read-out: water solubility of paclitaxel (concentration in supernatant). As for the experimental part:
The mixing time was 2 h before subjecting the dispersion to centrifugation to collect supernatant for paclitaxel quantification.
Thereafter, the dispersions were centrifuged at 16,000 g for 10 min, and the supernatants were collected for paclitaxel quantification using HPLC. The concentration of paclitaxel in the supernatant was considered as its water solubility.

In brackets after ≈: the same amount, converted by molar mass.

Description for Caco-2 cell monolayer: Nic-1000 and Nic-100: supernatant from centrifuged dispersion of pure niclosamide in HBSS at dispersing dose of 1000 and 100 μg/mL, respectively. Cel-1000 and Cel-100: supernatant from centrifuged dispersion of pure celecoxib in HBSS at dispersing dose of 1000 and 100 μg/mL, respectively. Nic-OHPP-100: supernatant from centrifuged dispersion of Nic-OHPP in HBSS at dispersing dose of 100 μg/mL (for pure niclosamide). Cel-OHPP-HPMCAS-100: supernatant of Cel-OHPP-HPMCAS dispersed in HBSS buffer at 100 μg/mL.
Caco-2 cells were seeded in the inserts with tissue-culture-treated polyester membranes (Transwells, 0.4 μm pore size, Corning) at a density of 1×10^4 cells/well. After seeding, the medium was changed every other day until the day of the permeation test. All tests were performed on day 21 after seeding. For the test, the culture medium was removed and the cells were washed twice with PBS buffer. The cells were then equilibrated in HBSS for 15 min prior to each study, and then apical and basolateral solution were aspirated.
To measure the apical-to-basolateral permeation of API, 0.5 mL of each test solution was added to the apical compartment, and the basolateral compartment received 1.5 mL HBSS. As a control, reference cells were incubated with 0.5 mL blank HBSS on the apical side, while the basolateral side received 1.5 mL of HBSS. All cultures were incubated in an incubator (5% CO2, 37° C.) for 2 h. After the incubation, the apical and the basolateral solutions were collected respectively and their amounts of API were determined using HPLC.
The loaded dispersions were prepared in two steps: (1) dispersing API-excipient complex solid and API alone in HBSS at the doses of 1000 μg/mL or 100 μg/mL, and (2) subjecting each dispersion to centrifugation (16,000 g, 5 min) to collect supernatant. The supernatants were loaded in the apical compartments of inserts.

Consider `Cc1ccc(-c2cc(C(F)(F)F)nn2-c2ccc(S(N)(=O)=O)cc2)cc1` [celecoxib], for which the solubility at 2 h in data set [1] was about 12.8 µg/mL. Besides, the “permeation of API through Caco-2 monolayer, API alone” value with Caco-2 cell monolayer is on record as “not sufficient to provide an appreciable permeation”. As to `COc1cc(/C=C/C(=O)CC(=O)/C=C/c2ccc(O)c(OC)c2)ccc1O` [curcumin], the solubility at 2 h in “physchem” (37 °C, aqueous buffer, thermodynamic from solid) was about 7.2 µg/mL (≈ 19.5 µM). In the case of `CC(=O)O[C@@]12CO[C@@H]1C[C@H](O)[C@@]1(C)C(=O)[C@H](O)C3=C(C)[C@@H](OC(=O)[C@H](O)[C@@H](NC(=O)OC(C)(C)C)c4ccccc4)C[C@@](O)([C@@H](OC(=O)c4ccccc4)[C@H]21)C3(C)C` [docetaxel], in data set [2], the solubility at 10 min is about 11.1 µg/mL.

On to `COC1=CC(=O)C[C@@H](C)[C@]12Oc1c(Cl)c(OC)cc(OC)c1C2=O` [griseofulvin], for which the solubility at 2 h in data set [3] is about 17.5 µg/mL. On to `CCC(C)n1ncn(-c2ccc(N3CCN(c4ccc(OCC5COC(Cn6cncn6)(c6ccc(Cl)cc6Cl)O5)cc4)CC3)cc2)c1=O` (centres unmarked) [itraconazole], for which the solubility at 10 min in data set [4] is about 0.96 µg/mL.

Turning to `O=C(Nc1ccc([N+](=O)[O-])cc1Cl)c1cc(Cl)ccc1O` [niclosamide], the solubility at 2 h in data set [5] was about 13.2 µg/mL. Further, the “permeation of API through Caco-2 monolayer, API alone” value with Caco-2 cell monolayer is given as “not sufficient to provide an appreciable permeation”.

As to `CC(=O)O[C@H]1C(=O)[C@@]2(C)[C@H]([C@H](OC(=O)c3ccccc3)[C@]3(O)C[C@H](OC(=O)[C@H](O)[C@@H](NC(=O)c4ccccc4)c4ccccc4)C(C)=C1C3(C)C)[C@]1(OC(C)=O)CO[C@@H]1C[C@@H]2O` [paclitaxel], the solubility at 2 h in data set [6] is about 6.2 µg/mL. For the compound “octenylsuccinate hydroxypropyl phytoglycogen [OHPP]”, in the data set “physchem”, the “increase of the solubility of curcumin in aqueous solution by use of OHPP” value is “at least 100 times”. Further, the “permeation of API through Caco-2 monolayer when OHPP was used” value in the data set on Caco-2 cell monolayer is on record as “substantially increased”.

The record behind these values is patent US10653784B2, “Hydrophobic highly branched carbohydrate polymers” (Purdue Research Foundation, priority 2015, dated 2020).
